From US12398092B2, “Method for inhibiting or disrupting biofilm formation, or reducing biofilm” (RAMOT AT TEL-AVIV UNIVERSITY LTD., priority 2015, dated 2025)

What was measured:
Assay type in all cases: cell-based
E. faecalis ATCC 29212 = assay: Biofilm inhibition, crystal violet staining (MBIC50); conditions: double-dilution method; Table 1; read-out: MBIC50, strain D
Procedure: (§1) Analysis of biofilm inhibition. The assay was performed as previously described (Joseph et al., 2016; Feldman et al., 2012) with minor modifications. […] Next, 100 μL of serial 1:2 dilutions of compounds in TSB+1% glucose (32, 16, 8, 4, 2, 1, and 0.5 μg/mL) were prepared in flat-bottomed 96-well microplates (Costar, Corning). Control wells with no compounds and wells without bacteria containing each tested concentration of the compounds (blanks) were also prepared. An equal volume (100 μL) of bacterial suspensions diluted 1:100 (OD600=0.01) or 1:10 (OD600=0.1) in TSB+1% glucose was added to each well. […] The wells were vigorously rinsed at least four times with doubly distilled water (DDW). Next, 0.4% crystal violet (200 μL) was added to each well. After 45 min, wells were vigorously rinsed three times with DDW to remove unbound dye. After adding 200 μL of 30% acetic acid to each well, the plate was shaken for 15 min to release the dye. Biofilm formation was quantified by measuring the difference between absorbance of untreated and treated bacterial samples for each tested concentration of the compounds and the absorbance of appropriate blank well at 600 nm (A600) using Tecan plate reader. The MBIC50 was defined as the lowest concentration at which at least 50% reduction in biofilm formation was measured compared to untreated cells. Each concentration of compound was tested in five replicates, and three to six independent experiments were performed.

S. aureus ATCC 29213 = assay: as above; conditions: double-dilution method; Table 1; read-out: MBIC50, strain B
Procedure: as §1

S. aureus BAA/043 = assay: as above; conditions: double-dilution method; Table 1; read-out: MBIC50, strain C
Procedure: as §1

[1] = test system: S. aureus subsp. aureus Rosenbach ATCC 33592 (MRSA); assay: as above; conditions: double-dilution method; Table 1; read-out: MBIC50, strain A
Procedure: as §1

S. epidermidis RP62A = assay: as above; conditions: double-dilution method; Table 1; read-out: MBIC50, strain E
Procedure: as §1

S. mutans ATCC 700610 = assay: as above; conditions: double-dilution method; Table 1; read-out: MBIC50, strain F
Procedure: as §1

mature biofilms = assay: Biofilm eradication; conditions: mature 24-h-old biofilms
Procedure: Analysis of biofilm eradication. Biofilm eradication activity of the tested compounds determined against mature 24-h-old biofilms was performed as previously described (Pompilio et al., 2015). […] Untreated biofilm samples were used as control. Biofilms were quantified by measuring the absorbance at 600 nm. […] Concentrations were tested in five replicates, and three independent experiments were performed.

[2] = test system: tested biofilm-forming Gram-positive pathogens; assay: Biofilm inhibition, statements over all tested strains; conditions: highest concentration tested
Procedure: as §1, with “Each concentration of compound was tested in five replicates, and three to six independent experiments were performed.” left out

Compound: deca-N-methyl-imidazolium pillar[5]arene [Compound 22]
- IC50 (E. faecalis ATCC 29212): 0.4 µM
- IC50 (S. aureus ATCC 29213): 1.6 µM
- IC50 (S. aureus BAA/043): 1.6 µM
- IC50 [1]: 0.8 µM
- IC50 (S. epidermidis RP62A): 3.2 µM
- IC50 (S. mutans ATCC 700610): 6.4 µM

Compound: deca-trimethylammonium pillar[5]arene [Compound 21]
- IC50 (E. faecalis ATCC 29212): 0.9 µM
- IC50 (S. aureus ATCC 29213): 3.5 µM
- IC50 (S. aureus BAA/043): 3.5 µM
- IC50 [1]: 0.9 µM
- IC50 (S. epidermidis RP62A): 3.5 µM
- IC50 (S. mutans ATCC 700610): 1.8 µM
- Eradication of mature biofilms (mature biofilms): did not eradicate mature biofilms

Compound: C[N+](C)(C)C.[Cl-] [TMA—Cl, tetramethylammonium chloride]
- IC50 (E. faecalis ATCC 29212): > 292 µM
- IC50 (S. aureus ATCC 29213): > 292 µM
- IC50 (S. aureus BAA/043): > 292 µM
- IC50 [1]: > 292 µM
- IC50 (S. epidermidis RP62A): > 292 µM
- IC50 (S. mutans ATCC 700610): > 292 µM
- Biofilm formation: no inhibition up to (concentration) [2]: > 208 µM

Compound: C[N+](C)(C)C.[Br-] [TMA—Br, tetramethylammonium bromide]
- IC50 (E. faecalis ATCC 29212): > 208 µM
- IC50 (S. aureus ATCC 29213): > 208 µM
- IC50 (S. aureus BAA/043): > 208 µM
- IC50 [1]: > 208 µM
- IC50 (S. epidermidis RP62A): > 208 µM
- IC50 (S. mutans ATCC 700610): > 208 µM
- Biofilm formation: no inhibition up to (concentration) [2]: > 292 µM
